# Values quoted from earlier work as cited in patent US10954430B2, “Low-toxicity, low-flammability, environmentally-safe, friction reducer fluid for hydraulic fracturing” (priority 2012, dated 2021).
# Read-outs that look alike come from different tables or passages of the source.
# How the values were obtained:
# [1] = tested on: rat
# [2] = tested on: Pimephales promelas (fathead minnow)
# [3] = tested on: daphnia magna (water flea)
# [4] = tested on: most sensitive species; conditions: eco-toxicity
# [5] = tested on: animal; conditions: in vivo
smiles,measurement,setting,value
"CC(O)COc1ccccc1 (stereo not drawn) [Dowanol PPH, propylene glycol phenyl ether]",LD50,[1]; in vivo,"> 2,000 mg/kg"
same,LC50,[2]; Pimephales promelas,280 µg/mL
same,LC50,[3]; Daphnia magna,370 µg/mL
same,LC50 for most sensitive species,[4],> 100 µg/mL
same,animal toxicity,[5],does not have significant animal toxicity
"CC1COC(=O)O1 (stereo not drawn) [Propylene carbonate, propylene carbonate]",LD50 for oral toxicity,[1]; oral,> 5000 mg/kg
OCCCO [propanediol],LD50,[1]; oral,"over 15,000 mg/kg"
same,aquatic toxicity profile,[2]; Pimephales promelas (fathead minnow),"> 9,270 mg/L"
same,aquatic toxicity profile,[3]; daphnia magna (water flea),> 7.417 mg/L
